In test [1] the target is T1, KAT-II (Homo sapiens, UniProt Q8N5Z0).
T1 construct: made in house
More on the design: method as in PMID 27367665. As to conditions: previously measured; cited from earlier work.

Test [2] deals with T1, KAT-II. More on the design: method as in PMID 27367665. As to conditions: SPR, chi^2 0.34; cited from earlier work. On the technique in general: Surface plasmon resonance follows binding to a sensor surface in real time, without labels.
The target of test [3] is T2, human KAT-I (Homo sapiens, UniProt Q16773).
T2 sequence (Q16773 1-422): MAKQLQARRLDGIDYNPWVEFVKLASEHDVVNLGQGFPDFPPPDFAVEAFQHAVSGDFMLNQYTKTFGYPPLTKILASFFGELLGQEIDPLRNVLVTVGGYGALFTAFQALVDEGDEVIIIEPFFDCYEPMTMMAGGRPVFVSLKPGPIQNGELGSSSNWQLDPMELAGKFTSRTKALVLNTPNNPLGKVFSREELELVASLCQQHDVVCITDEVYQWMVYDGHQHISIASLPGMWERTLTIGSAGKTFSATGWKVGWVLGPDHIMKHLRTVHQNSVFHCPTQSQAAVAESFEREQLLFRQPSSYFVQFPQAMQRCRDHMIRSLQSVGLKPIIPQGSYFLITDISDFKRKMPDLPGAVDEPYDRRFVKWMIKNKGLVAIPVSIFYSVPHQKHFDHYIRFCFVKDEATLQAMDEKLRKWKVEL
In words: HPLC inhibition assay on recombinant human KAT-I (KYNA production). In kind it is biochemical.
Description: The KAT inhibition assay was based on that described previously[35]. 0.7 µg of KAT-I or KAT-II was incubated at 37 °C for 10 minutes in a 50 µL reaction mixture containing PLP (50 µM), α-ketoglutarate (5 mM), L-KYN (5 mM) in PBS, pH 7.4, and the inhibitor studied (1–2000 µM). Following incubation, the reaction was terminated by adding formic acid (0.8 M) in a 1:1 ratio. 50 µL of the mixture was transferred into a vial with 950 µL of water for HPLC analysis.

The target in test [4] is T1, KAT-II. In words: HPLC inhibition assay on recombinant human KAT-II (KYNA production). In kind it is biochemical. The protocol:
GraphPad Prism v7.02 software[59] was used to develop a nonlinear regression fit of the data collected in the inhibition assays. The IC50 is reported with the standard error.
The expression and purification of recombinant KAT-I and KAT-II protein was completed as previously described[60],[61].
The KAT inhibition assay was based on that described previously. […] Following incubation, the reaction was terminated by adding formic acid (0.8 M) in a 1:1 ratio. 50 µL of the mixture was transferred into a vial with 950 µL of water for HPLC analysis.
The production of KYNA was measured using HPLC with UV detection at a wavelength of 330 nm, using a C18 reverse-phase column, and 50% (v/v) water and 50% (v/v) methanol mobile phase. The data was collected in triplicate.

Test [5] addresses T1, KAT-II. Briefly: Surface plasmon resonance binding assay, steady state affinity model. As to conditions: KAT-II on CM5 chip, 25 °C, chi^2 0.481. The protocol:
SPR was employed to evaluate the binding profile of estradiol disulfate on KAT-II. KAT-II was bound to a CM5 chip by amine coupling (achieving approximately 8000 RU). […] Due to the nature of this interaction, kinetic analyses could not be performed to directly evaluate the association and dissociation rate constants.
SPR binding affinity measurements were performed using the Biacore T200 with a CM5 sensor chip (GE Healthcare Life Sciences, Sydney, Australia). The experiment was prepared and obtained with the Biacore T200 Control Software, and analysed with the Biacore T200 Evaluation Software.
Prior to performing the SPR experiments, the solutions were filter sterilised for 10 min at 25 °C. KAT-II was diluted to a concentration of 350 µg/mL using sodium acetate (pH 4.5). The Biacore T200 compartment temperature was controlled at 25 °C and the flow rate was set to 10 µL/min. Using a 1:1 mixture of EDC (400 mM) and sulfo-NHS (100 mM), two flow cells on a CM5 sensor chip (containing a carboxymethylated dextran surface) were activated. Flow cell one contained a blank immobilisation (PBST buffer injection) and flow cell two had the prepared KAT-II sample injected. The two flow cells were deactivated using an injection of 1 M ethanolamine.
The analyte, estradiol disulfate, was prepared in running buffer (PBST with 5% DMSO) in a concentration series from 170 nM-43750 nM. […]

The mark [6] stands for this setting: recombinant human KAT-I, inhibitor 1–2000 µM, read-out: IC50 on KAT-I.
Setting [7] is: recombinant human KAT-II, inhibitor 1–2000 µM, read-out: IC50 on KAT-II.

This is an account of results in PMC5730616, “Inhibition of human kynurenine aminotransferase isozymes by estrogen and its derivatives” (Scientific Reports, 2017).

Where “and” joins values, the source holds several entries; their conditions need not be identical. Identical values can stand only once. Counter-ions that a name gives are not always drawn. Like-named read-outs stand apart in the source and are kept apart here.

What is called IC50 is the concentration needed to halve the response being measured. In general, Kd refers to the concentration at which binding is half-saturated.

T1 sequence (Q8N5Z0 30-425): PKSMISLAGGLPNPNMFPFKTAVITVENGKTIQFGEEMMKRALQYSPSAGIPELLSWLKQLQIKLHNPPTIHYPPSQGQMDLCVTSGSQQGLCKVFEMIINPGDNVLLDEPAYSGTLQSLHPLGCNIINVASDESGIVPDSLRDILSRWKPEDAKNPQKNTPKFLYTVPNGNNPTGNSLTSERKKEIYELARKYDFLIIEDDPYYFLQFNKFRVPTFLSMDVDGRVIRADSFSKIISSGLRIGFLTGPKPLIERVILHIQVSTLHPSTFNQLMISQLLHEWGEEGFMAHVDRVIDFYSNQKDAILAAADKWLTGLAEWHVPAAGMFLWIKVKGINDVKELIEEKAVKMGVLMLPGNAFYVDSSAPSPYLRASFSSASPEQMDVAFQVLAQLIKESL

`CC1COc2c(N3CCN(N)CC3)c(F)cc3c(=O)c(C(=O)O)cn1c23` (stereo not drawn) [BFF-122]: in test [1], the IC50 is 15 to 20 µM.
For `O=C(O)C(Cc1ccccc1)N1C(=O)c2cc(Cl)c(Cl)cc2C1=O` (stereo not drawn) [NS-1502], the Kd in test [2] was 7.2 µM. Moreover, in test [1], the IC50 is 315 µM.
For `NC1Cc2ccccc2N(O)C1=O` (stereo not drawn) [PF-04859989, reference compound], in test [1], the half-maximal inhibitory concentration (IC50) is 1 to 3 µM.
Regarding `C[C@]12CCC3c4ccc(OS(=O)(=O)O)cc4CCC3C1CC[C@@H]2O` (stereo partly drawn) [estradiol 3-sulfate, estradiol 3-sulfate sodium salt], the IC50 in test [3] (setting [6]) and in test [4] (setting [7]) was more than 2000 µM each time.
For the compound `C[C@]12CC[C@@H]3c4ccc(OS(=O)(=O)O)cc4CC[C@H]3[C@@H]1CC[C@@H]2OS(=O)(=O)O` [estradiol disulfate, estradiol 3,17-disulfate dipotassium salt], binding in test [5] was characterised by a dissociation constant (Kd) of 5.05 µM. Moreover, the IC50 was found to be 292 µM in test [3] (recombinant human KAT-I, PLP 50 µM, L-KYN 5 mM, 37 °C 10 min, ± standard error, read-out: IC50 on KAT-I) and 26.3 µM in test [4] (recombinant human KAT-II, PLP 50 µM, L-KYN 5 mM, 37 °C 10 min, ± standard error, read-out: IC50 on KAT-II). In addition, the “Increase of inhibition compared to estradiol” value in test [4] (KAT-I and KAT-II inhibition assays, attributed to the 17-sulfate moiety) is reported as 10–100 fold. Moreover, in test [4] (shown by varying PLP concentration in the reaction mixture), the “Reversibility of KAT-II inhibition” value is listed as “reversible”.
`C[C@]12CC[C@@H]3c4ccc(O)cc4CC[C@H]3[C@@H]1CC[C@@H]2O` [estradiol, reference compound]: the half-maximal inhibitory concentration (IC50) in test [3] and in test [4] was more than 2000 µM each time.
In the case of `C[C@]12CCC3c4ccc(OS(=O)(=O)O)cc4CCC3C1CCC2=O` (stereo partly drawn) [estrone sulfate, estrone sulfate potassium salt], the IC50 was more than 2000 µM in test [3] (setting [6]); > 2000 µM and ~2000 µM in test [4] (setting [7]).
